Patent US20070072815A1, “Methods and kits to increase the efficiency of oligonucleotide-directed nucleic acid sequence alteration” (priority 2004, published 2007)
“Also recorded” adds a separate entry of the source.

Key:
[1] = tested on: mutant eGFP gene in DLD-1-1 cells; assay: eGFP gene correction (oligonucleotide-directed sequence alteration) in DLD-1-1 cells, FACS readout; format: cell-based
Experimental: Cell line and culture conditions: DLD-1 cells are obtained from ATCC (American Type Cell Culture, Manassas, Va.). DLD-1 integrated clone 1 (DLD-1-1) is obtained by integration of the vector pEGFP-N3 containing a single point mutation (TAG) in the eGFP gene, as described in copending U.S. patent application Ser. No. 10/986,418, filed Nov. 10, 2004 (“Mammalian Cell Lines for Detecting, Monitoring, and Optimizing Oligonucleotide-Mediated Chromosomal Sequence Alteration”). Cells are grown in RPMI 1640 medium with 2 mM glutamine, 4.5 g/L glucose, 10 mM HEPES, 1 mM sodium pyruvate and supplemented with 10% FBS. Cells are maintained at 5% CO2, 37° C. and under selection in 200 μg/ml G418 (Gibco, Invitrogen Co., Carlsbad, Calif.).
eGFP gene correction: Cells grown in complete medium supplemented with 10% FBS are trypsinized and harvested by centrifugation. The cell pellet is resuspended in serum-free medium at a density of 1×10^6 cells/100 μl and transferred to a 4 mm gap cuvette (Fisher Scientific, Pittsburgh, Pa.). The oligonucleotide is then added at a concentration of 4 μM and the cells are electroporated (LV, 250V, 13 msec, 2 pulses, 1 second interval) using a BTX ECM830 apparatus (BTX, Holliston, Mass.). The cells are then transferred to a 60 mm dish containing fresh medium supplemented with 10% FBS and incubated for 48 hrs at 37° C. before harvesting for FACS analysis.
The percentage of converted cells in a whole population is then calculated by CellQuest™ (Becton Dickinson) and GFP/PI programs. The correction efficiency is determined by dividing the number of eGFP positive cells by the number of cells analyzed in each experiment (usually 50,000 cells). Each clone is tested three times to determine the standard deviation of the correction efficiency, with standard deviation calculated using Microsoft Excel.
The experimental strategy involves the introduction of oligonucleotides into DLD-1-clone 1 cells by electroporation followed by phenotypic readout of the corrected eGFP gene, 48 hours later. The correcting oligonucleotide (EGFP3S/72NT) is 72 bases in length (72-mer), complementary to the non-transcribed strand of the mutant eGFP gene but designed to create a single mismatch in the third base of codon 67 (see FIG. 1A). It directs conversion of a TAG→TAC codon which enables phenotypic expression of eGFP, which can be detected by FACS. FIG. 1B outlines the sequence of the target gene, the 72-mer and a nonspecific 74-mer used as a control.
Oligonucleotide-Directed Sequence Alteration: The resulting synchronized populations of cells, and asynchronous controls, are grown in complete medium supplemented with 10% FBS and trypsinzed and harvested by centrifugation at 1500 rpm for 5 minutes. The cell pellet is resuspended in fresh serum-free medium at a density of 2×10^6 cells/100 μl. The entire cell suspension is mixed with 20 μg of EGFP/72NT and transferred into a 4 mm gap cuvette (Fisher Scientific, Pittsburgh, Pa., USA) followed by electroporation with two 250V pulses, each 13 ms in duration, with one second between pulses, unipolar.
Cells are incubated at room temperature for 30 min. […] Frequency of converted cells are calculated by CellQuest™ and GFP/PI programs.
Double Thymidine Block: Cells are synchronized in G1 or at the G1/S border by a double thymidine block. Twenty-four hours prior to the addition of any agent (HU, etc.), cells are plated at a density of 0.5×10^6 cells per 100 mm dish, followed by incubation in 2 mM thymidine (Sigma) for 16 hrs, washed and released in fresh medium for 10 hrs, then incubated in 2 mM thymidine for an additional 15 hrs.
FACS is then used to analyze 50,000 cells from each population to determine the percentage of cells expressing functional eGFP, as described in Example 1.

[2] = tested on: α-galactosidase A (GLA) activity in Fabry's cell line DMN-1; assay: GLA activity in Fabry's cells after ODSA; format: cell-based, human
Excerpt: Cell line DMN-1, a human fibroblast cell line derived from a human patient with Fabry's disease, is obtained from the National Institutes of Health (NIH). These cells are used to measure the efficiency of correction of a mutant allele of α-galactosidase A (GLA) using methods of the present invention. The specific disease-causing mutation in the Fabry's cell line used herein is A143P, caused by a G→C mutation in the gene. See Branton et al., Medicine (Baltimore) (2002) 81(2): 122-38.
All four oligonucleotides are used to effect ODSA substantially as described in Example 1, with the exception that cells are transfected with oligonucleotides, rather than electroporated. Oligos are added at 5 μg, 10 μg or 30 μg per reaction. After ODSA is performed, cells are cultured and assayed for GLA activity according to the method of Brady, as described in Medin et al., Proc. Natl. Acad. Sci. (USA) (1996) 93:7917-22, the disclosure of which is incorporated herein by reference in its entirety. The GLA activity is used as a measure of gene correction by comparing the activities in treated versus untreated cultures. The correction efficiency is subsequently confirmed by sequencing of the locus of mutation in a number of treated cells.
[…] Unlike the experiments involving correction of eGFP in DLD-1-1 cells described in Example 1, however, certain of the agents (VPA, caffeine, TSA) in the experiments in this example are not added before transfection, but are instead added only after transfection, during the recovery period.
The means of introducing oligonucleotide into the target cells also differs from previous examples, with transfection in the presence of the transfection enhancing agent FuGENE™ 6 (FG) (Roche Diagnostics Corp., Indianapolis, Ind., USA) being used rather than electroporation. Each transfection reaction includes 100 μl of target cells and 12 μl of FG unless otherwise indicated, despite the fact that FG is not explicitly listed for each datapoint in the relevant figures. Otherwise the procedures used in the DLD-1-1 experiments and the Fabry's experiments are similar.
The results of a further series of experiments are shown at FIG. 15D, where the data are presented as GLA activity as nanomolar (nM) concentration of the product of the GLA assay generated per hour per unit protein concentration (as are the data in FIGS. D and E).

[3] = tested on: homologous recombination (HR); conditions: via inhibition of ATM kinase / p53 ser-15 phosphorylation; cited from earlier work

Cn1c(=O)c2c(ncn2C)n(C)c1=O [caffeine]
effect on correction efficiency, recovery phase ([1]; 4 mM caffeine after electroporation, up to 48 hrs): dramatically increases correction efficiency; also recorded: stimulates correction; also recorded: the greater the enhancement of correction efficiency
effect on MMS-enhanced correction ([1]; 4 mM caffeine in addition to 0.2 μM MMS): completely suppressing the enhancement otherwise caused by MMS
effect on correction efficiency ([1]; 4 mM caffeine pre-treatment, with or without 0.2 μM MMS): lower than the control experiment; also recorded: ineffective at increasing the efficiency of gene repair
effect on correction efficiency, pretreatment ([1]; 4 mM caffeine prior to electroporation): decreases correction efficiency; also recorded: inhibits oligonucleotide-directed gene correction; also recorded: reduction in basal repair levels
correction levels ([1]; caffeine added to ddC-treated cells, pretreatment (FIG. 20)): 0.6%
effect on ddC-stimulated gene repair ([1]; inhibitor added with ddC before electroporation (FIG. 20)): blocks the stimulation in gene repair caused by ddC treatment; also recorded: knocks down correction induced by ddC
effect on GLA activity ([2]; synchronized cells treated with 0.3 mM HU, 4 mM caffeine during recovery period): modest effect on GLA activity
effect on ddC-enhanced GLA activity ([2]; synchronized cells, 500 μM ddC, 4 mM caffeine or 100 ng/ml TSA during recovery period): eliminate the ability of 500 μM ddC to enhance GLA activity
reduction of the level of HR [3]: 60-90%
